Measured values from ChEMBL document CHEMBL1909046, “DrugMatrix in vitro pharmacology data”.

Tests used:
[1] = target: T1, C-X-C chemokine receptor type 2 (Homo sapiens, UniProt P25025); type: cell membranes, Membrane; conditions: cho-k1; further: in other assays of this panel Not Active means under 50% inhibition at 10 µM
T1 sequence (P25025 whole entry): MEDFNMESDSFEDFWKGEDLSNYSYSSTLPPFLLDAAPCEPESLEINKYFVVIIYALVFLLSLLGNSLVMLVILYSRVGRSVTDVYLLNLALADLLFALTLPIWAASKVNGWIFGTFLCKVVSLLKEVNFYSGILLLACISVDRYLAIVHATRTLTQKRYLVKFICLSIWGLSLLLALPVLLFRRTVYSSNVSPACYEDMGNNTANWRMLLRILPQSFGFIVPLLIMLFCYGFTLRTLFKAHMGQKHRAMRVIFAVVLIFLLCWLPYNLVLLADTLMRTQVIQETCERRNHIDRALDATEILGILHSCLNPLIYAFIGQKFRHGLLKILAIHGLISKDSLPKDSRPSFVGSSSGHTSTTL

[2] = DRUGMATRIX: Interleukin IL-1 radioligand binding (ligand: [125I] interleukin 1beta); type: cell membranes, Membrane; conditions: nih3t3; Not Active = under 50% inhibition at 10 µM
[3] = target: Voltage-gated inwardly rectifying potassium channel KCNH2 (Homo sapiens, UniProt Q12809); conditions: hek293; further: in other assays of this panel Not Active means under 50% inhibition at 10 µM
Melanocortin receptor 5 = Melanocortin receptor 5 (Homo sapiens, UniProt P33032); type: cell membranes, HEK293, Membrane; conditions: hek293; further: in other assays of this panel Not Active means under 50% inhibition at 10 µM
Calcitonin receptor = target: T2, Calcitonin receptor (Homo sapiens, UniProt P30988); type: cell membranes, Membrane; conditions: t47d; further: in other assays of this panel Not Active means under 50% inhibition at 10 µM
T2 sequence (P30988 whole entry): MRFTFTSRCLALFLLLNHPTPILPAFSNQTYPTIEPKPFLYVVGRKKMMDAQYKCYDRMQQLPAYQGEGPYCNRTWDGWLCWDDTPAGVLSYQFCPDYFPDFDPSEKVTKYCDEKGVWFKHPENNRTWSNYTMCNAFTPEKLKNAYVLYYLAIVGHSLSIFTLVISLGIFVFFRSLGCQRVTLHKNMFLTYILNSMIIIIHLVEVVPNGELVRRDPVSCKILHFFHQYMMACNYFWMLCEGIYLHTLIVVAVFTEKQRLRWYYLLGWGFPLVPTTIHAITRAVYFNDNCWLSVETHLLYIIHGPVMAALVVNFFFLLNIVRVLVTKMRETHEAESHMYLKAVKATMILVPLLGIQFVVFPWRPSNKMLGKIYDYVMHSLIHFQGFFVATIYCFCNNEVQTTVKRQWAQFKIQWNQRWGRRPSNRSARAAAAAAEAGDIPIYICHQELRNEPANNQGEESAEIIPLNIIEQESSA

[4] = target: C-C chemokine receptor type 2 (Homo sapiens, UniProt P41597); type: cell membranes, Membrane; conditions: cho-k1; further: in other assays of this panel Not Active means under 50% inhibition at 10 µM
[5] = DRUGMATRIX: Glutamate, NMDA, Agonism radioligand binding (ligand: [3H] CGP-39653); type: cell membranes, Rattus norvegicus, Wistar, Cerebral cortex, Membrane; conditions: Not Active = under 50% inhibition at 10 µM
[6] = target: T3, Nitric oxide synthase, inducible (Mus musculus, UniProt P29477); design: species or system Escherichia coli
T3 sequence (P29477 whole entry): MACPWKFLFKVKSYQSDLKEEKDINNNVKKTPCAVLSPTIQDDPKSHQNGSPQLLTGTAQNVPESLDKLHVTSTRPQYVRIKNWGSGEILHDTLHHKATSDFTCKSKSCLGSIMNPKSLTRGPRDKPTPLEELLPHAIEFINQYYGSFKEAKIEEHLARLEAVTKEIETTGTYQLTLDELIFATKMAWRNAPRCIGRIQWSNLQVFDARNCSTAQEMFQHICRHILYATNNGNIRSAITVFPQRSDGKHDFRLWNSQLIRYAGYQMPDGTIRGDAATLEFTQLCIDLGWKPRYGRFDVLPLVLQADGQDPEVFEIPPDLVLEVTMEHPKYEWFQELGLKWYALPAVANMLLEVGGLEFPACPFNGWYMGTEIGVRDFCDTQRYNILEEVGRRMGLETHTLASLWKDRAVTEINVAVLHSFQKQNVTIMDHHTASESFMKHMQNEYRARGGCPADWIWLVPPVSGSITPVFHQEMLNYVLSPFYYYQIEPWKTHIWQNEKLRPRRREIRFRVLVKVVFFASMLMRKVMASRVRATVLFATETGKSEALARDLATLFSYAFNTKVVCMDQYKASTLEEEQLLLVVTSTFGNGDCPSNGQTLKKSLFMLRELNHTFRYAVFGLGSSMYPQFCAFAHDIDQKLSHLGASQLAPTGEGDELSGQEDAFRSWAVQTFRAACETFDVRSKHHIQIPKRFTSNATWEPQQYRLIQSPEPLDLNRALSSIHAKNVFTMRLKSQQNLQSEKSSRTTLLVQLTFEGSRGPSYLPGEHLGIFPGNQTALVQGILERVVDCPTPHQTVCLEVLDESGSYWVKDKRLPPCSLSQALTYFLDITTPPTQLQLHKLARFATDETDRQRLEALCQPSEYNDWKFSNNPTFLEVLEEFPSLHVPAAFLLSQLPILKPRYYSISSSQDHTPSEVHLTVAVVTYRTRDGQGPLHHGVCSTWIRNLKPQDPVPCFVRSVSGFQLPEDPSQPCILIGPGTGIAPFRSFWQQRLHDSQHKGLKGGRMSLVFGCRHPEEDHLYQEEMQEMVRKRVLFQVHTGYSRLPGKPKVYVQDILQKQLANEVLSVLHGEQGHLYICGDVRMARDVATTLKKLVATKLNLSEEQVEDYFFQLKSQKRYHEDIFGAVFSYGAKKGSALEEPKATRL

Voltage-gated inwardly rectifying potassium channel KCNH2, sequence (Q12809 whole entry): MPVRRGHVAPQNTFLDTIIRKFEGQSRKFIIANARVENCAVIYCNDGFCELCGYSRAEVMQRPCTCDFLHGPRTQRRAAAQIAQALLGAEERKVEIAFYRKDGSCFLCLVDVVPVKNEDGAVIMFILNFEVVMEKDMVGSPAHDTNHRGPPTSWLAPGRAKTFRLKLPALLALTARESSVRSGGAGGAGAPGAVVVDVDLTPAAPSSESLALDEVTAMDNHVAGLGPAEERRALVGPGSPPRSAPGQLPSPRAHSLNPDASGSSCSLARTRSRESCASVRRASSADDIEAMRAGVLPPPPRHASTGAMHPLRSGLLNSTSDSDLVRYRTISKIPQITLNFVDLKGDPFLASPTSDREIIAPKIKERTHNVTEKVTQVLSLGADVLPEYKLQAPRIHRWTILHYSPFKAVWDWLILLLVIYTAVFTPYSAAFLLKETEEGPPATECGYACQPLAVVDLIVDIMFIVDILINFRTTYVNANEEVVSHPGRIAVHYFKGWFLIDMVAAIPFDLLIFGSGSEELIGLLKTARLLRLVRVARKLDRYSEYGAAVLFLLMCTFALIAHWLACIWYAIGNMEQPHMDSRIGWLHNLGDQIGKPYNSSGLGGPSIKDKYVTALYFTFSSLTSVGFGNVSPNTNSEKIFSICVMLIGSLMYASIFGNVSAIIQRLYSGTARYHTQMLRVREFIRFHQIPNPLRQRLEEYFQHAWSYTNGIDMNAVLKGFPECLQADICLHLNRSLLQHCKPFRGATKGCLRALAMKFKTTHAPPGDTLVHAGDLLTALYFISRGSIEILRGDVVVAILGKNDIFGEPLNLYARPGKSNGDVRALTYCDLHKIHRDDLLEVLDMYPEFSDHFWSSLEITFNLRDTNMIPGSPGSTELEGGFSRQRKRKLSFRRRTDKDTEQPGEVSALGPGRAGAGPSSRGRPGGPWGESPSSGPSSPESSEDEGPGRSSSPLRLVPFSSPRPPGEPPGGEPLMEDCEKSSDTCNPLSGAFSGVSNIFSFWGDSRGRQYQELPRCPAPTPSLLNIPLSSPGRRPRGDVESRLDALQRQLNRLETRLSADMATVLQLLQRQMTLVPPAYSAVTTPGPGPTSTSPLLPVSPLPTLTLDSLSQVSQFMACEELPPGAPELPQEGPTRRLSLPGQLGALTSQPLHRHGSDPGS
Melanocortin receptor 5, sequence (P33032 whole entry): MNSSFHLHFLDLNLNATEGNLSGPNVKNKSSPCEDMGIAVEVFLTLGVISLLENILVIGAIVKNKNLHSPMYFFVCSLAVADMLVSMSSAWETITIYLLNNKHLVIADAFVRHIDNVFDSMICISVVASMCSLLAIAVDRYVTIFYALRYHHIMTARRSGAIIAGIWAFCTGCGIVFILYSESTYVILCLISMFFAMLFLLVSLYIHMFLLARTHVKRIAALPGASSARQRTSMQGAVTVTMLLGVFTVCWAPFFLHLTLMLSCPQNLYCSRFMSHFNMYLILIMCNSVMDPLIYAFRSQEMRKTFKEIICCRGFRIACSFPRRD
C-C chemokine receptor type 2, sequence (P41597 whole entry): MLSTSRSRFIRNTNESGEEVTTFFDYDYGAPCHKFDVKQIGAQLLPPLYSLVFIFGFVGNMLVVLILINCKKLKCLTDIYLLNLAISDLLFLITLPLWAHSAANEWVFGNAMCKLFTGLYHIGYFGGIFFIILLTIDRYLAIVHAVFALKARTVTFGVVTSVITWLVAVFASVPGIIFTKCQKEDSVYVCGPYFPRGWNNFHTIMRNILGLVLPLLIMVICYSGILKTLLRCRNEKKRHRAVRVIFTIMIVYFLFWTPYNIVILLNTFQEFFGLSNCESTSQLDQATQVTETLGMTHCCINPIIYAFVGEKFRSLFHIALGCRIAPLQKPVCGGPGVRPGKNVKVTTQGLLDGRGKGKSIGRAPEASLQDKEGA

CCC1(C)CC(=O)NC1=O (stereo not drawn) [ETHOSUXIMIDE]
Not Active: IC50 [1] | IC50 [2] | Ki [2] | IC50 [3] | Ki [3] | IC50 (Melanocortin receptor 5) | IC50 (Calcitonin receptor) | IC50 [4] | IC50 [5] | Ki [5] | IC50 [6]

Brc1c(NC2=NCCN2)ccc2nccnc12 [BRIMONIDINE]
Not Active: IC50 [1] | IC50 [2] | Ki [2] | IC50 [3] | Ki [3] | IC50 (Melanocortin receptor 5) | IC50 (Calcitonin receptor) | IC50 [4] | IC50 [5] | Ki [5] | IC50 [6]

COc1cc([C@@H]2c3cc4c(cc3[C@@H](O[C@@H]3O[C@@H]5CO[C@@H](C)O[C@H]5[C@H](O)[C@H]3O)[C@H]3COC(=O)[C@H]23)OCO4)cc(OC)c1O [ETOPOSIDE]
Not Active: IC50 [1] | IC50 [2] | Ki [2] | IC50 [3] | Ki [3] | IC50 (Melanocortin receptor 5) | IC50 (Calcitonin receptor) | IC50 [4] | IC50 [5] | Ki [5] | IC50 [6]

COC(=O)CCc1ccc(OCC(O)CNC(C)C)cc1 (stereo not drawn) [ESMOLOL]
Not Active: IC50 [1] | IC50 [2] | Ki [2] | IC50 [3] | Ki [3] | IC50 (Melanocortin receptor 5) | IC50 (Calcitonin receptor) | IC50 [4] | IC50 [5] | Ki [5] | IC50 [6]

COc1ccc(C(=O)N2CCCC2=O)cc1
Not Active: IC50 [1] | IC50 [2] | Ki [2] | IC50 [3] | Ki [3] | IC50 (Melanocortin receptor 5) | IC50 (Calcitonin receptor) | IC50 [4] | IC50 [5] | Ki [5] | IC50 [6]

O=C(O)CCNC(=O)c1ccccc1 [BETAMIPRON]
Not Active: IC50 [1] | IC50 [2] | Ki [2] | IC50 [3] | Ki [3] | IC50 (Melanocortin receptor 5) | IC50 (Calcitonin receptor) | IC50 [4] | IC50 [5] | Ki [5] | IC50 [6]

O=c1cnn([C@@H]2O[C@H](CO)[C@@H](O)[C@H]2O)c(=O)[nH]1 [6-AZAURIDINE]
Not Active: IC50 [1] | IC50 [2] | Ki [2] | IC50 [3] | Ki [3] | IC50 (Melanocortin receptor 5) | IC50 (Calcitonin receptor) | IC50 [4] | IC50 [5] | Ki [5] | IC50 [6]

Cc1c(OCC(F)(F)F)ccnc1C[S+]([O-])c1nc2ccccc2[nH]1 (stereo not drawn) [LANSOPRAZOLE]
Not Active: IC50 [1] | IC50 [2] | Ki [2] | IC50 [3] | Ki [3] | IC50 (Melanocortin receptor 5) | IC50 (Calcitonin receptor) | IC50 [4] | IC50 [5] | Ki [5] | IC50 [6]

C[C@@H]1C[C@H]2[C@@H]3CCC4=CC(=O)C=C[C@]4(C)[C@@]3(F)[C@@H](O)C[C@]2(C)[C@H]1C(=O)CO [DESOXIMETASONE]
Not Active: IC50 [1] | IC50 [2] | Ki [2] | IC50 [3] | Ki [3] | IC50 (Melanocortin receptor 5) | IC50 (Calcitonin receptor) | IC50 [4] | IC50 [5] | Ki [5] | IC50 [6]

O=C(c1ccccc1C(F)(F)F)N1CCC(Cc2ccccc2)CC1
Not Active: IC50 [1] | IC50 [2] | Ki [2] | IC50 [3] | Ki [3] | IC50 (Melanocortin receptor 5) | IC50 (Calcitonin receptor) | IC50 [4] | IC50 [5] | Ki [5] | IC50 [6]

O=c1cc(N2CCOCC2)oc2c(-c3ccccc3)cccc12 [LY-294002]
Not Active: IC50 [1] | IC50 [2] | Ki [2] | IC50 [3] | Ki [3] | IC50 (Melanocortin receptor 5) | IC50 (Calcitonin receptor) | IC50 [4] | IC50 [5] | Ki [5] | IC50 [6]

N=C(N)NC(=O)Cc1c(Cl)cccc1Cl [GUANFACINE]
Not Active: IC50 [1] | IC50 [2] | Ki [2] | IC50 [3] | Ki [3] | IC50 (Melanocortin receptor 5) | IC50 (Calcitonin receptor) | IC50 [4] | IC50 [5] | Ki [5] | IC50 [6]

NC(=O)C[S+]([O-])C(c1ccccc1)c1ccccc1 (stereo not drawn) [MODAFINIL]
Not Active: IC50 [1] | IC50 [2] | Ki [2] | IC50 [3] | Ki [3] | IC50 (Melanocortin receptor 5) | IC50 (Calcitonin receptor) | IC50 [4] | IC50 [5] | Ki [5] | IC50 [6]
